# PubChem BioAssay (NCI)
# “And” between values parts separate entries of the source, which are not always exact repeats. Equal entries are not always repeated.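 Tested at 5 concentrations; 48 h exposure; 96-well plates; endpoints linearly interpolated, else capped at highest concentration. GI50 marks 50% less growth. TGI marks complete inhibition of growth.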
# Tested on: T-47D breast
# Assay: NCI-60 cell line screen, 48 h
Structure (SMILES),GI50 [µM],TGI
OCc1cc2ccccc2c2c3c(ccc12)OCO3,24.1,81.5 µM
COc1cnc2c(c1)C(=O)c1c-2n(CCCN2CCOCC2)c(=O)c2cc(F)ccc12,0.118,0.69 µM
C[C@@H](Oc1cc(-n2cnc3ccc(CN4CCN(C)CC4)cc32)sc1C(N)=O)c1ccccc1C(F)(F)F,3.35,21.4 µM and > 10 µM
CCOC1Oc2ccccc2C(=O)/C1=C/Nc1ccc(C(C)=O)cc1 (stereo not drawn),62.7,> 100 µM
O=C(CCNC12CC3CC(CC(C3)C1)C2)c1ccccc1,–,55.4 µM
COc1cccc(-c2cc(-c3cccc(NS(C)(=O)=O)c3)nc(N)c2C#N)c1O,0.317,58.6 µM
CCN1CCN(Cc2ccc(NC(=O)c3cccc(C#Cc4cccc5[nH]nc(N)c45)c3)cc2C(F)(F)F)CC1,0.975,3.39 µM
Cc1ccsc1C(=S)Nc1ccc(Cl)c(/C=N/OC(C)(C)C)c1,–,> 100 µM
NC(N)=NS(=O)(=O)c1ccc(Nc2c3ccccc3nc3c(C(=O)NCCO)cccc23)cc1,11,–
COc1cccc(C2c3cc4c(cc3OC(C)(N3CCCC3)C2C)OCO4)c1O (stereo not drawn),–,> 100 µM
COC(=O)CC[N+]1=CCC(c2ccccc2)(c2ccccc2)O1,–,> 100 µM
CCN(CC)N=Nc1c(C(N)=O)n[nH]c1C,–,> 100 µM
O=C1NC(=NCCc2cccc(F)c2)S/C1=C\c1ccc2ncccc2c1,6.89,> 25 µM
COc1cc(/C=N\NC(=O)CN2CCN(c3cc4c(cc3F)c(=O)c(C(=O)N/N=C/c3cc(OC)c(OC)c(OC)c3)cn4C3CC3)CC2)cc(OC)c1OC,0.255,0.767 µM
OCCN(CCO)c1ncnc2c1ncn2Cc1ccc(CCl)cc1,19.4,36.5 µM
Cc1ccc2c(C)c3c(ccc4ccccc43)c[n+]2c1,1.73,7.18 µM
Cc1ccc(CN2CCC(C(=O)Nc3ccc(-c4cc5ccccc5[nH]4)cc3)CC2)o1,> 100,> 100 µM
C=CC(=O)Nc1cc(Nc2ncc(C(=O)OC(C)C)c(-c3cn(C)c4ccccc34)n2)c(OC)cc1N(C)CCN(C)C,0.396,14 µM
O=C(Nc1ccc(F)cc1)Nc1ccc(Cl)c([N+](=O)[O-])c1,2.18,9.67 µM
CCOC(=O)Cn1c(C(F)(F)F)nc2nc(Cl)c(Cl)nc21,–,> 100 µM
CC1CCc2nc[nH]c(=O)c21 (stereo not drawn),> 100,> 100 µM
Fc1[nH]nc2ccc([C@@H]3Nc4ccc5[nH]ncc5c4[C@H]4C5CCC(C5)[C@@H]34)cc12 (stereo partly drawn),0.436,12.9 µM
Nc1ccccc1C#C/C=C\C#Cc1ccccc1OC(F)(F)F,4.19,74.1 µM
COC1/C=C/OC2(C)Oc3c(C)c(O)c4c(O)c(c(/C=N/Nc5ccc([N+](=O)[O-])cc5[N+](=O)[O-])c(O)c4c3C2=O)NC(=O)C(C)=C/C=C/C(C)C(O)C(C)C(O)C(C)C(OC(C)=O)C1C (stereo not drawn),2.07,> 50 µM
Cc1ccc(NC(=O)Nc2ccc(-c3cccnc3)cc2N2CCC(CO)CC2)cc1,3.9,> 100 µM
Cc1cnc(NCCCN(C)C)c2c1[nH]c1ccc3cc(O)ccc3c12,–,2.78 µM
Fc1ccc(NC(=S)SCc2ccc3c(c2)OCO3)cc1F,–,33 µM

# Tested on: DMS 273 small cell lung
# Assay: NCI-60 cell line screen, 48 h
Structure (SMILES),TGI [µM],GI50 [µM]
O=C1/C(=C/c2ccc(O)c(O)c2)CCC/C1=C\c1ccc(O)c(O)c1,7.2,–
Cc1c(C(=O)C/C(=N/NC(=O)c2ccccc2O)C(=O)Nc2ccccc2C(C)C)[n+](=O)c2ccccc2n1[O-],> 100,–
CCCCCCCCCCCC(=O)OCCOCCOCCOCCOCCOCc1ccccc1,> 100,–
CCCC1C(=O)CCc2c(OC)ccc(OC)c21 (stereo not drawn),> 100,–
Cc1ccc(S(=O)(=O)OC[C@@H]2CO2)cc1,> 100,–
CCn1c(C)nn2c(=O)c3ccccc3nc2c1=O,> 100,–
CCOC(=O)CCC1(C(=O)OCC)CCCCC1=O (stereo not drawn),> 100,–
Cc1nc2c(ccc3ncccc32)[nH]1,> 100,–
CC1(C)C(=O)/C=C\C(=O)C(C)(C)C2=CC=C(O2)C(C)(C)C(=O)/C=C\C(=O)C(C)(C)C2=CC=C1O2,> 100,–
NC(=O)NO.O.O.O.O.O.O.O.O.O.O.O.[Ge].[Ge].[Ge].[Ge].[Ge].[O]=[Ge].[O]=[Ge].[O]=[Ge].[O]=[Ge].[O]=[Ge][OH],> 100,–
CN(C)C(=S)N=C(Nc1ccccc1)Nc1ccccc1,> 100,–
CCC[CH2][Sn]([CH2]CCC)([S]c1cccc2cccnc12)[S]c1cccc2cccnc12,0.432,0.177
OCC1=CC(NC2CC(CO)C(O)C(O)C2O)C(O)C(O)C1O (stereo not drawn),> 100,–
CCOC(=O)C(C)(C)Oc1ccc2c(-c3ccccc3)cc(=O)oc2c1,> 100,–
CNS(=O)(=O)NNS(=O)(=O)c1ccccc1,> 100,–
Cc1cc(NS(=O)(=O)c2ccc(Nc3c4ccccc4nc4c(C(=O)N5CCN(CCOS(C)(=O)=O)CC5)cccc34)cc2)no1,> 100,–
NC1=NCCC1(c1ccccc1)c1ccccn1 (stereo not drawn),> 100,–
CNC(=S)OCCC(C)CCCC(C)C (stereo not drawn),30.7,–
COC(=O)/C(C#N)=C1\NC(=O)c2ccccc21,> 100,–
Cc1cnc(NCCCN(C)C)c2c1[nH]c1ccc3cc(O)ccc3c12,1.24,–

# Tested on: RXF-631 renal
# Assay: NCI-60 cell line screen, 48 h
row,Structure (SMILES),TGI [µM]
1,O=C(Nc1nc2ccc([N+](=O)[O-])cc2s1)C(=O)C(C1OC(=O)c2ccccc21)[N+](=O)[O-] (stereo not drawn),> 100
2,Cc1ccc(S(=O)(=O)OC[C@@H]2CO2)cc1,> 100
